Results published in paper PMC8092876, “A Leucyl-tRNA Synthetase Inhibitor with Broad-Spectrum Antimycobacterial Activity” (Antimicrobial Agents and Chemotherapy, 2021).
≈ marks a conversion by molar mass, not a printed value.

Assays:
[1] = test system: M. tuberculosis H37Rv ATCC 27294; test: MIC assay in 96-well plate format; format: cell-based; settings: Mycobacterium tuberculosis, 168 h
[2] = test system: M. abscessus subsp. abscessus ATCC 19977; test: MIC assay in 96-well plate format; format: cell-based; settings: Mycobacteroides abscessus, ATCC19977; M. abscessus subsp. abscessus ATCC 19977, culture collection reference strain
[3] = test system: M. abscessus subsp. massiliense CCUG 48898T; test: MIC assay in 96-well plate format; format: cell-based; settings: Mycobacteroides abscessus, culture collection reference strain
[4] = test system: M. abscessus subsp. abscessus M404; test: MIC assay in 96-well plate format; format: cell-based; settings: Mycobacteroides abscessus; M. abscessus subsp. abscessus M404, clinical isolate
[5] = test system: M. abscessus subsp. bolletii M506; test: MIC assay in 96-well plate format; format: cell-based; settings: Mycobacteroides abscessus; M. abscessus subsp. bolletii M506, clinical isolate
[6] = test system: M. abscessus subsp. massiliense M111; test: MIC assay in 96-well plate format; format: cell-based; settings: Mycobacteroides abscessus; M. abscessus subsp. massiliense M111, clinical isolate
[7] = test system: M. abscessus subsp. abscessus K21; test: MIC assay in 96-well plate format; format: cell-based; settings: Mycobacteroides abscessus; M. abscessus subsp. abscessus K21, clinical isolate, infection model
[8] = test system: M. intracellulare ATCC 13950; test: MIC assay in 96-well plate format; format: cell-based; settings: Mycobacterium intracellulare, ATCC13950; M. intracellulare ATCC 13950, culture collection reference strain
[9] = test system: M. abscessus Bamboo biofilms; test: Biofilm growth inhibition assay (biofilm MIC and MBC); format: cell-based, M. abscessus subsp. abscessus; settings: Mycobacteroides abscessus
Protocol: The biofilm growth inhibition assay was performed as previously described ([40]). Innovotech MBEC 96-well biofilm assay plates (Innovotech 19111, Edmonton, AB, Canada) were used, and the supplier’s manual was followed with minor modifications. Mid-log-phase M. abscessus Bamboo precultures (OD600 = 0.4 to 0.6) were spun down at 3200 × g for 10 min at 25°C and washed with 7H9 medium without Tween 80 (7H9nt). Bacteria were resuspended into 25 ml 7H9nt to an OD600 of 0.0125 (1.0 × 10^6 CFU/ml). […] The lids with the pegs were transferred to a new MBEC multititer plate containing 150 μl of fresh 7H9nt medium per well without bacteria (0 h time point). After that, the pegs with growing biofilm were transferred once a day to a new multititer plate containing fresh 7H9nt medium. To measure growth of the biofilm formed on the peg, the pegs were washed in 200 μl of 7H9nt medium before they were aseptically removed and placed in 1.7 ml microcentrifuge tubes (VWR 87003-294, Rador, PA, United States) containing 500 μl PBS/Tween 80. The microcentrifuge tubes were vigorously vortexed at 2,000 rpm for 90 s at 25°C to detach the bacteria from the pegs before samples were serially diluted and plated for the determination of CFU/peg. […] The average drug-free biofilm growth was calculated by subtracting the average 24 h CFU/peg value from the average 72 h CFU/peg value for the untreated control pegs. The biofilm MIC was defined as the lowest drug concentration that reduced the CFU/peg by 90% relative to that of the average drug-free biofilm growth.

[10] = test system: M. abscessus Bamboo RM1 (LeuS A428P); test: microbe, parasite or virus in culture; format: cell-based; settings: Mycobacteroides abscessus
[11] = test system: M. abscessus Bamboo RM5 (LeuS V417M); test: microbe, parasite or virus in culture; format: cell-based; settings: RM5, batch 2, LeuS V417M
[12] = test system: M. abscessus subsp. abscessus K21; test: M. abscessus mouse infection model; format: in vivo; settings: NOD SCID mice, intranasal infection, 10 mg/kg orally once daily for 10 days, day 11
Protocol: In vivo efficacy determinations were carried out as described previously, using 8-week-old female NOD.CB17-Prkdc^scid/NCrCrl (NOD SCID) mice (Charles River Laboratories) and the M. abscessus subsp. abscessus K21 strain ([38]). Briefly, anesthetized animals were infected by intranasal delivery of ∼10^6 CFU of M. abscessus subsp. abscessus K21. Acute infection was achieved within 1 day. Drugs or the vehicle control were administered to NOD SCID mice once daily for 10 consecutive days by oral gavage, starting from 1 day postinfection. Clarithromycin was formulated in 0.4% methyl cellulose-sterile water and administered at a dose of 250 mg/kg. EC/11770 was formulated in 0.4% methyl cellulose-sterile water and administered at 10 mg/kg. All mice were euthanized 24 h after the last dose (11 days postinfection), and their lungs and spleen were aseptically removed prior to homogenization. The bacterial load in these organs was determined by plating serial dilutions of the organ homogenates onto Middlebrook 7H11 agar (BD Difco) supplemented with 0.2% (vol/vol) glycerol and 10% (vol/vol) oleic acid-albumin-dextrose-catalase (OADC). The agar plates were incubated for 5 days at 37°C prior to counting of colonies. […]

[13] = TB efficacy studies; stated as known, no reference given; cited from earlier work
[14] = test system: M. abscessus Bamboo; test: MIC and MBC determination in culture tubes (planktonic)
Protocol: M. abscessus Bamboo culture was grown to mid-log-phase (OD600 = 0.4 to 0.6) and diluted to OD600 = 0.1 (1 × 10^7 CFU/ml). Aliquots of 1.2 ml of the resulting bacteria suspension were transferred into 14 ml vented, round-bottom tubes (Thermo Fisher 150268, Rochester, NY, United States). A 10-point 2-fold dilution series of the compound was prepared, starting at 100 times the desired highest concentration. The compound concentration range tested was 100 to 0.195 μM. For each drug concentration tested, 12 μl of drug stock was added to two tubes and vortexed. Aliquots of 12 μl of DMSO were added to two tubes as the untreated controls (1% final DMSO concentration). From each tube, 200 μl was transferred to wells on a 96-well plate and the OD600 was measured using a Tecan Infinite M200 plate reader (day 0 reading). The tubes (1 ml final volume) were incubated on a tilted rack at 37°C on an orbital shaker at 220 rpm. On day 2, tubes were vortexed before transferring 200 μl onto a 96-well plate to measure the OD600 again (day 2 reading). To determine the MIC, day 0 and day 2 OD600 values were analyzed as previously described for MIC determination in 96-well plate format. To determine the MBC, CFU measurement was done for the OD600 = 0.1 bacteria suspension on day 0 and for each tube on day 2. Specifically, serial 10-fold dilutions were prepared in phosphate-buffered saline (Thermo Fisher 10010023) containing 0.025% Tween 80 (PBS/Tween 80) and plated on 7H10 agar. The MBC was defined as the lowest concentration of drug that reduced the CFU/ml value by 10-fold relative to the day 0 CFU/ml value.

`CC(C)(O)COc1ccc(Br)c2c1B(O)O[C@@H]2CN` [EC/11770] gave an MIC [1] of 0.56 µM (≈ 0.185 µg/mL), an MIC [2] of 0.7 µM (≈ 0.231 µg/mL) and an MIC [3] of 0.71 µM (≈ 0.234 µg/mL). It also gave an MIC [4] of 0.52 µM (≈ 0.172 µg/mL), an MIC [5] of 0.48 µM (≈ 0.158 µg/mL) and an MIC [6] of 0.95 µM (≈ 0.313 µg/mL). For the same compound, the MIC [7] was 0.6 µM (≈ 0.198 µg/mL), the MIC [8] was 0.37 µM (≈ 0.122 µg/mL) and the MBC ([9]; 10-fold CFU/peg reduction vs 24 h) was 50 µM (≈ 16.5 µg/mL). The MIC ([9]; 48 h with drug, 90% reduction of CFU/peg growth) was 3.1 µM (≈ 1.02 µg/mL), the MIC [10] was greater than 100 µM and the MIC ([11]; Mycobacteroides abscessus) was 60 to 75 µM (≈ 19.8 to 24.7 µg/mL). The MIC [11] was 75 µM (≈ 24.7 µg/mL), the “reduction in lung CFU” value [12] was 1.5 log and the tolerated dose [13] was “up to 100 mg/kg”. The MBC ([14]; Mycobacteroides abscessus) was greater than 100 µM, the MIC ([14]; Mycobacteroides abscessus, 48 h) was 3 µM (≈ 0.99 µg/mL) and the MIC ([14]; planktonic M. abscessus Bamboo in culture tubes, day 2) was 3.0 µM (≈ 0.99 µg/mL). It also gave an MBC ([14]; planktonic M. abscessus Bamboo in culture tubes, day 2, 10-fold CFU/ml reduction vs day 0) greater than 100 µM.
